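Values below derive from 48-hour exposures of cells grown in 96-well plates, with endpoints linearly interpolated between the two concentrations bracketing the appropriate inhibition level. TGI: total growth inhibition.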 Where a SMILES comes first, the peptide text is derived from it. [ ]: non-standard residue; d: D form. The star is where a group is joined. Tyr(3-Br) = N[C@@H](Cc1ccc(O)c(Br)c1)C(=O)O; Boc = CC(C)(C)OC(=O)*
How the values were obtained:
Test in all cases: NCI anticancer screen, dose series, 48 h
786-0 renal = test system: 786-0 renal
A498 renal = test system: A498 renal
A549 NSCLC = test system: A549 NSCLC
ACHN renal = test system: ACHN renal
BT-549 breast = test system: BT-549 breast
CAKI-1 renal = test system: CAKI-1 renal
CCRF-CEM leukemia = test system: CCRF-CEM leukemia
COLO 205 colon = test system: COLO 205 colon
DU-145 prostate = test system: DU-145 prostate
EKVX NSCLC = test system: EKVX NSCLC
HCC-2998 colon = test system: HCC-2998 colon
HCT-116 colon = test system: HCT-116 colon
HCT-15 colon = test system: HCT-15 colon
HL-60(TB) leukemia = test system: HL-60(TB) leukemia
HOP-62 NSCLC = test system: HOP-62 NSCLC
HS 578T breast = test system: HS 578T breast
HT29 colon = test system: HT29 colon
IGROV1 ovarian = test system: IGROV1 ovarian
K-562 leukemia = test system: K-562 leukemia
KM12 colon = test system: KM12 colon
M14 melanoma = test system: M14 melanoma
MALME-3M melanoma = test system: MALME-3M melanoma
MCF7 breast = test system: MCF7 breast
MDA-MB-231 breast = test system: MDA-MB-231 breast
MDA-N = test system: MDA-N
MOLT-4 leukemia = test system: MOLT-4 leukemia
NCI-H226 lung = test system: NCI-H226 lung
NCI-H23 lung = test system: NCI-H23 lung
NCI-H460 lung = test system: NCI-H460 lung
NCI-H522 lung = test system: NCI-H522 lung
NCI/ADR-RES ovarian = test system: NCI/ADR-RES ovarian
OVCAR-3 ovarian = test system: OVCAR-3 ovarian
OVCAR-4 ovarian = test system: OVCAR-4 ovarian
OVCAR-5 ovarian = test system: OVCAR-5 ovarian
OVCAR-8 ovarian = test system: OVCAR-8 ovarian
PC-3 prostate = test system: PC-3 prostate
SF-268 CNS = test system: SF-268 CNS
SF-295 CNS = test system: SF-295 CNS
SF-539 CNS = test system: SF-539 CNS
SK-MEL-2 melanoma = test system: SK-MEL-2 melanoma
SK-MEL-28 melanoma = test system: SK-MEL-28 melanoma
SK-MEL-5 melanoma = test system: SK-MEL-5 melanoma
SK-OV-3 ovarian = test system: SK-OV-3 ovarian
SN12C renal = test system: SN12C renal
SNB-19 CNS = test system: SNB-19 CNS
SNB-75 CNS = test system: SNB-75 CNS
SR leukemia = test system: SR leukemia
SW-620 colon = test system: SW-620 colon
T-47D breast = test system: T-47D breast
TK-10 renal = test system: TK-10 renal
U251 CNS = test system: U251 CNS
UACC-257 melanoma = test system: UACC-257 melanoma
UACC-62 melanoma = test system: UACC-62 melanoma
UO-31 renal = test system: UO-31 renal
HOP-92 NSCLC = test system: HOP-92 NSCLC
LOX IMVI melanoma = test system: LOX IMVI melanoma
MDA-MB-435 = test system: MDA-MB-435
RPMI-8226 leukemia = test system: RPMI-8226 leukemia
RXF 393 renal = test system: RXF 393 renal

Measured: TGI

COC(=O)NC1(NC(=O)OC)NC(=O)c2cc(OC)c(OC)c(OC)c2N1
67.7 µM: HS 578T breast
8.85 µM: SK-MEL-2 melanoma
16.9 µM: MDA-N
38.8 µM: SNB-75 CNS
72.3 µM: PC-3 prostate
87.7 µM: HL-60(TB) leukemia
41.5 µM: NCI-H522 lung
56.6 µM: NCI/ADR-RES ovarian
not listed: HOP-92 NSCLC | LOX IMVI melanoma | MDA-MB-435 | RPMI-8226 leukemia | RXF 393 renal
> 100 µM: all other assays above

CCOC(=O)C(C(=O)c1ccccc1C(=O)OC)=P(c1ccccc1)(c1ccccc1)c1ccccc1
not listed: SR leukemia
> 10 µM: all other assays above

COC(=O)[C@H](Cc1ccc(O)c(Br)c1)NC(=O)[C@H](Cc1ccc(O)cc1)NC(=O)OC(C)(C)C (Boc-Tyr-[Tyr(3-Br)]-OMe)
91 µM: RPMI-8226 leukemia
93 µM: HOP-92 NSCLC
57.2 µM: MALME-3M melanoma
37.7 µM: NCI-H460 lung
94.9 µM: SF-539 CNS
42.6 µM: LOX IMVI melanoma
37.5 µM: OVCAR-8 ovarian
44.4 µM: T-47D breast
38.3 µM: OVCAR-3 ovarian
51.2 µM: CCRF-CEM leukemia
98.1 µM: BT-549 breast
44 µM: HCT-15 colon
71.5 µM: NCI-H23 lung
53.5 µM: MDA-MB-435
not listed: MDA-MB-231 breast | NCI-H522 lung | SK-MEL-5 melanoma | U251 CNS | UACC-62 melanoma | RXF 393 renal
> 100 µM: all other assays above

Source: PubChem BioAssay (NCI)
